Experimental data published in patent US20230286973A1, “PROTEIN SECRETION INHIBITORS” (KEZAR LIFE SCIENCES, priority 2020, published 2023).

Columns and labels:
[1] = Liver Microsome Stability Assay (monkey); conditions: monkey liver microsomes, with NADPH, 1.0 uM compound
Procedure: (§1) Stability of a compound was assessed in the presence of liver microsomes from various sources—mouse, rat, monkey and human liver microsomes. 1.0 uM compound, 0.4% DMSO in 0.1 M Potassium Phosphate with 1.0 mg/mL liver microsomes, were incubated at 37° C. with or without 1 mM NADPH. The samples were quenched at 0, and 30 minutes.

[2] = test system: PD1-ss+10aa/Gaussia Luciferase; assay: Dox-Induced PD1-ss-Gluc Assay; format: cell-based; conditions: 24 hr Dox induction; 293FRT/TO cells; mean; read-out: 24 hr Dox Inducible PD1ssGluc 293FRT/TO: Mean IC50
Summary of the method: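 Doxycycline-induced expression of a PD1-ss+10aa/Gaussia luciferase reporter is measured in stable Flp-In 293 T-REx cells. Compound dilutions containing doxycycline are added one day after plating and incubated at 37 °C, 5% CO2. Values for unassigned stereocentres refer to stereoisomer mixtures.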

[3] = test system: multiple myeloma cell line U266B1; assay: U266 Cell Viability Assay; format: cell-based, human; conditions: Homo sapiens, U-266, 48 h, U266B1 cells, Celltiter-Glo
Summary of the method: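 CellTiter-Glo luminescence was read after a 48 h compound exposure (37 °C, 5% CO2) of human U266B1 myeloma cells grown in 10% FBS-supplemented RPMI 1640. Data for structures shown without defined stereochemistry refer to stereoisomer mixtures.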

[4] = Liver Microsome Stability Assay (human); conditions: human liver microsomes, with NADPH, 1.0 uM compound
Procedure: as §1

[5] = test system: multiple myeloma cell line NCI-H929; assay: H929 Cell Viability Assay; format: cell-based, human; conditions: Homo sapiens, NCI-H929, 48 h, NCI-H929 cells, Celltiter-Glo
Summary of the method: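 Luminescent CellTiter-Glo read-out of viability after a 48 h exposure (37° C, 5% CO2) of NCI-H929 myeloma cells to compound dilutions in RPMI 1640 plus 10% FBS. Data for structures drawn without stereochemistry refer to stereoisomer mixtures.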

[6] = test system: HER3-ss+4aa/Gaussia Luciferase; assay: Dox-Induced Her3-ss-Gluc Assay; format: cell-based; conditions: 24 hr Dox induction; 293FRT/TO cells; mean; read-out: 24 hr Dox Inducible Her3(ss + 4)Gluc 293FRT/TO: Mean IC50
Summary of the method: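 Compounds were diluted in DMSO/media containing doxycycline. They were added to Flp-In 293 T-REx cells plated the previous day, then incubated at 37 °C under 5% CO2. These cells stably express, under T-REx control, Gaussia luciferase fused to the HER3 signal sequence plus 4 amino acids.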

[7] = test system: IL-2-FL/Gaussia Luciferase; assay: Dox Induced IL2-FL-Gluc Assay; format: cell-based; conditions: for IC50: 24 hr Dox induction, 293FRT/TO cells, mean, read-out: 24 hr Dox Inducible IL2FLGluc 293FRT/TO: Mean IC50; for 24 hr Dox Inducible IL2FLGluc 293FRT/TO: IL2/PD1: ratio of IL2FLGluc IC50 to PD1ssGluc IC50, '<=>' given where both are I.A.
Summary of the method: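 Compounds in DMSO/medium with doxycycline were applied to a 293 T-REx stable line expressing an IL-2 (aa 1-153)–Gaussia luciferase fusion under tetracycline-regulated control, cells seeded one day earlier; incubation at 37 °C, 5% CO2. Structures drawn without stereochemistry were tested as stereoisomer mixtures.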

[8] = test system: TNFα-FL/Gaussia Luciferase; assay: Dox Induced TNFα-FL-Gluc Assay; format: cell-based; conditions: for IC50: 24 hr Dox induction, 293FRT/TO cells, mean, read-out: 24 hr Dox Inducible TNFaFLGluc 293FRT/TO: Mean IC50; for 24 hr Dox Inducible TNFaFLGluc 293FRT/TO: TNF/PD1: ratio of TNFaFLGluc IC50 to PD1ssGluc IC50, '<=>' given where both are I.A.
Summary of the method: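 Compound was added with doxycycline to cells plated a day earlier, incubating at 37° C under 5% CO2. The reporter line is 293 T-REx expressing a TNFα (1-233)–Gaussia luciferase fusion under tetracycline-regulated control.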

[9] = Liver Microsome Stability Assay (mouse); conditions: mouse liver microsomes, with NADPH, 1.0 uM compound
Procedure: as §1

[10] = Liver Microsome Stability Assay (rat); conditions: rat liver microsomes, with NADPH, 1.0 uM compound
Procedure: as §1

Liver Microsome Stability (Multiple Species): Monkey - % Remaining after 30 min w/NADPH [1] [%]	IC50 [2] [nM]	EC50 [3] [nM]	Liver Microsome Stability (Multiple Species): Human - % Remaining after 30 min w/NADPH [4] [%]	EC50 [5] [nM]	IC50 [6] [nM]	IC50 [7] [nM]	IC50 [8] [nM]	Liver Microsome Stability (Multiple Species): Mouse - % Remaining after 30 min w/NADPH [9] [%]	Liver Microsome Stability (Multiple Species): Rat - % Remaining after 30 min w/NADPH [10] [%]	Structure (SMILES)	24 hr Dox Inducible IL2FLGluc 293FRT/TO: IL2/PD1 [7]	24 hr Dox Inducible TNFaFLGluc 293FRT/TO: TNF/PD1 [8]
0.32	64	> 25000	0.02	2970	97	95.2	704	0.72	0.23	Cc1ccnc(N2CCC[C@@H]2c2csc(NC(=O)c3cccn3Cc3ccncc3)n2)c1 [Compound E63, (R)-N-(4-(1-(4-methylpyridin-2-yl)pyrrolidin-2-yl)thiazol-2-yl)-1-(pyridin-4-ylmethyl)-1H-pyrrole-2-carboxamide]	1.5	11
7.11	70.3	> 25000	6.7	3100	106	70.5	377	0.21	0.16	Cc1cccnc1N1CCC[C@@H]1c1csc(NC(=O)c2cccn2Cc2ccncc2)n1 [Compound E64, (R)-N-(4-(1-(3-methylpyridin-2-yl)pyrrolidin-2-yl)thiazol-2-yl)-1-(pyridin-4-ylmethyl)-1H-pyrrole-2-carboxamide]	1	5.37
0.13	5.5	> 25000	0.33	142	14.4	16.4	71	0.33	2.87	CCc1ccc(N2CCC[C@@H]2c2csc(NC(=O)c3cccn3Cc3ccncc3)n2)nc1 [Compound E65, (R)-N-(4-(1-(5-ethylpyridin-2-yl)pyrrolidin-2-yl)thiazol-2-yl)-1-(pyridin-4-ylmethyl)-1H-pyrrole-2-carboxamide]	3	12.9
